Measurements as given in patent publication US20110152194A1, “CHIMERIC NATRIURETIC POLYPEPTIDES AND METHODS FOR INHIBITING CARDIAC REMODELING” (MAYO FOUNDATION FOR MEDICAL EDUCATION AND RESEARCH, priority 2008, published 2011).
Values joined by “and” are separate entries in the source; they are usually repeats but may differ in a detail not shown here. Identical values can stand only once. Like-named read-outs stand apart in the source and are kept apart here.

What was measured:
male mongrel dogs = test: In vivo actions of CD-NP, CNP and CNP-C continuous i.v. infusion in anesthetized dogs; set-up: species or system dog; conditions: for ANG II, angiotensin II / Aldosterone / CO, cardiac output / DFRNa, distal fractional reabsorption of Na+ / GFR, glomerular filtration rate / MAP, mean arterial pressure / PAP, pulmonary arterial pressure / PCWP, pulmonary capillary wedge pressure / PFRNa, proximal fractional reabsorption of Na+ / PRA, plasma renin activity / PVR, pulmonary vascular resistance / RAP, right atrial pressure / RBF / RVR, renal vascular resistance / SVR, systemic vascular resistance: dogs, 75 min i.v. infusion of CD-NP 50 ng/kg/min or equimolar CNP
[1] = in vivo; cited from earlier work
normal anesthetized dogs = conditions: dog, in vivo

For GLSKGCFGLKLDRIGSMSGLGCGKSLG [CNP-C], the “ANG II” value (male mongrel dogs; dog, in vivo, iv) was “did not result in any significant changes”, the GFR (male mongrel dogs; dog, in vivo, iv) was “did not result in any significant changes” and the PRA (male mongrel dogs; dog, in vivo, iv) was “did not result in any significant changes”. For the same substance, the “Pulmonary capillary wedge pressure” value (male mongrel dogs; dog, in vivo, iv) was 4.3±0.8 mmHg and 3.4±0.8 mmHg, the diuresis (male mongrel dogs; dog, in vivo, iv) was “did not result in any significant changes” and the mean arterial pressure (male mongrel dogs; dog, in vivo, iv) was 132±6 mmHg and 128±5 mmHg. For the same substance, the natriuresis (male mongrel dogs; dog, in vivo, iv) was “did not result in any significant changes”, the “plasma cGMP” value (male mongrel dogs; dog, in vivo, iv) was “did not result in any significant changes” and the “urinary cGMP excretion” value (male mongrel dogs; dog, in vivo, iv) was “did not result in any significant changes”.

For GLSKGCFGLKLDRIGSMSGLGC [CNP], the “ANG II, angiotensin II” value (male mongrel dogs; 30 min I) was 7.5 ± 1.4 pg/mL, the Aldosterone (male mongrel dogs; 30 min I) was 21.1 ± 3.8 ng/dL and the “CO, cardiac output” value (male mongrel dogs; 30 min I) was 3.3 ± 0.3 L/min. For the same substance, the “DFRNa, distal fractional reabsorption of Na+” value (male mongrel dogs; 30 min I) was 97 ± 0.4%, the “GFR, glomerular filtration rate” value (male mongrel dogs; 30 min I) was 52.7 ± 6.7 mL/min and the “MAP, mean arterial pressure” value (male mongrel dogs; 30 min I) was 127 ± 4 mmHg. The “PAP, pulmonary arterial pressure” value (male mongrel dogs; 30 min I) was 12.8 ± 0.8 mmHg, the “PCWP, pulmonary capillary wedge pressure” value (male mongrel dogs; 30 min I) was 4.6 ± 0.5 mmHg and the “PFRNa, proximal fractional reabsorption of Na+” value (male mongrel dogs; 30 min I) was 73 ± 2%. The “PRA, plasma renin activity” value (male mongrel dogs; 30 min I) was 1.9 ± 0.6 ng/mL/h, the “PVR, pulmonary vascular resistance” value (male mongrel dogs; 30 min I) was 1.9 ± 0.2 mmHgL^−1 · min and the “RAP, right atrial pressure” value (male mongrel dogs; 30 min I) was 2.5 ± 0.3 mmHg. For the same substance, the RBF (male mongrel dogs; 30 min I) was 294.2 ± 30.8 mL/min, the “RVR, renal vascular resistance” value (male mongrel dogs; 30 min I) was 0.47 ± 0.06 × 10^−3 mmHg · L^−1 · min and the “SVR, systemic vascular resistance” value (male mongrel dogs; 30 min I) was 39.9 ± 2.7 mmHgL^−1 · min. For the same substance, the “ANG II, angiotensin II” value (male mongrel dogs; 60 min I) was 10.4 ± 2.8 pg/mL, the Aldosterone (male mongrel dogs; 60 min I) was 21.4 ± 3.7 ng/dL and the “CO, cardiac output” value (male mongrel dogs; 60 min I) was 2.8 ± 0.3 L/min. For the same substance, the “DFRNa, distal fractional reabsorption of Na+” value (male mongrel dogs; 60 min I) was 97 ± 0.9%, the “GFR, glomerular filtration rate” value (male mongrel dogs; 60 min I) was 49.5 ± 4.2 mL/min and the “MAP, mean arterial pressure” value (male mongrel dogs; 60 min I) was 128 ± 4 mmHg. For the same substance, the “PAP, pulmonary arterial pressure” value (male mongrel dogs; 60 min I) was 13.2 ± 0.7 mmHg, the “PCWP, pulmonary capillary wedge pressure” value (male mongrel dogs; 60 min I) was 5.6 ± 0.7 mmHg and the “PFRNa, proximal fractional reabsorption of Na+” value (male mongrel dogs; 60 min I) was 72 ± 1%. The “PRA, plasma renin activity” value (male mongrel dogs; 60 min I) was 2.5 ± 0.7 ng/mL/h, the “PVR, pulmonary vascular resistance” value (male mongrel dogs; 60 min I) was 2.1 ± 0.3 mmHgL^−1 · min and the “RAP, right atrial pressure” value (male mongrel dogs; 60 min I) was 2.9 ± 0.3 mmHg. The RBF (male mongrel dogs; 60 min I) was 277.8 ± 29.2 mL/min, the “RVR, renal vascular resistance” value (male mongrel dogs; 60 min I) was 0.49 ± 0.06 × 10^−3 mmHg · L^−1 · min and the “SVR, systemic vascular resistance” value (male mongrel dogs; 60 min I) was 46.9 ± 2.7^† mmHgL^−1 · min. For the same substance, the “ANG II, angiotensin II” value (male mongrel dogs; Post-I) was 14.4 ± 5.0 pg/mL, the Aldosterone (male mongrel dogs; Post-I) was 22.0 ± 4.2 ng/dL and the “CO, cardiac output” value (male mongrel dogs; Post-I) was 2.6 ± 0.1 L/min. The “DFRNa, distal fractional reabsorption of Na+” value (male mongrel dogs; Post-I) was 97 ± 0.8%, the “GFR, glomerular filtration rate” value (male mongrel dogs; Post-I) was 48.8 ± 5.6 mL/min and the “MAP, mean arterial pressure” value (male mongrel dogs; Post-I) was 128 ± 4 mmHg. For the same substance, the “PAP, pulmonary arterial pressure” value (male mongrel dogs; Post-I) was 13.9 ± 0.7 mmHg, the “PCWP, pulmonary capillary wedge pressure” value (male mongrel dogs; Post-I) was 6.4 ± 0.8 mmHg and the “PFRNa, proximal fractional reabsorption of Na+” value (male mongrel dogs; Post-I) was 73 ± 2%. The “PRA, plasma renin activity” value (male mongrel dogs; Post-I) was 3.2 ± 1.0 ng/mL/h, the “PVR, pulmonary vascular resistance” value (male mongrel dogs; Post-I) was 2.2 ± 0.4 mmHgL^−1 · min and the “RAP, right atrial pressure” value (male mongrel dogs; Post-I) was 3.5 ± 0.5 mmHg. For the same substance, the RBF (male mongrel dogs; Post-I) was 272.0 ± 24.5 mL/min, the “RVR, renal vascular resistance” value (male mongrel dogs; Post-I) was 0.49 ± 0.06 × 10^−3 mmHg · L^−1 · min and the “SVR, systemic vascular resistance” value (male mongrel dogs; Post-I) was 48.7 ± 2.5^† mmHgL^−1 · min. For the same substance, the “ANG II, angiotensin II” value (male mongrel dogs; Pre-I (pre-infusion)) was 11.7 ± 4.7 pg/mL, the Aldosterone (male mongrel dogs; Pre-I (pre-infusion)) was 15.1 ± 4.2 ng/dL and the “CO, cardiac output” value (male mongrel dogs; Pre-I (pre-infusion)) was 3.8 ± 0.3 L/min. For the same substance, the “DFRNa, distal fractional reabsorption of Na+” value (male mongrel dogs; Pre-I (pre-infusion)) was 98 ± 0.6%, the “GFR, glomerular filtration rate” value (male mongrel dogs; Pre-I (pre-infusion)) was 52.2 ± 5.3 mL/min and the “MAP, mean arterial pressure” value (male mongrel dogs; Pre-I (pre-infusion)) was 123 ± 4 mmHg. For the same substance, the “PAP, pulmonary arterial pressure” value (male mongrel dogs; Pre-I (pre-infusion)) was 13.1 ± 0.8 mmHg, the “PCWP, pulmonary capillary wedge pressure” value (male mongrel dogs; Pre-I (pre-infusion)) was 5.0 ± 0.5 mmHg and the “PFRNa, proximal fractional reabsorption of Na+” value (male mongrel dogs; Pre-I (pre-infusion)) was 80 ± 3%. For the same substance, the “PRA, plasma renin activity” value (male mongrel dogs; Pre-I (pre-infusion)) was 2.9 ± 1.4 ng/mL/h, the “PVR, pulmonary vascular resistance” value (male mongrel dogs; Pre-I (pre-infusion)) was 1.8 ± 0.2 mmHgL^−1 · min and the “RAP, right atrial pressure” value (male mongrel dogs; Pre-I (pre-infusion)) was 2.6 ± 0.3 mmHg. The RBF (male mongrel dogs; Pre-I (pre-infusion)) was 273.4 ± 25.5 mL/min, the “RVR, renal vascular resistance” value (male mongrel dogs; Pre-I (pre-infusion)) was 0.49 ± 0.07 × 10^−3 mmHg · L^−1 · min and the “SVR, systemic vascular resistance” value (male mongrel dogs; Pre-I (pre-infusion)) was 33.8 ± 2.9 mmHgL^−1 · min. For the same substance, the half-life [1] was “about a minute and a half”.

For B-type natriuretic peptide [BNP], the GFR (normal anesthetized dogs) was “lack of increase”.

In the case of PSLRDPRPNAPSTSA [C-terminus], the “DFRNa, distal fractional sodium reabsorption” value (normal anesthetized dogs) is reported as 98.7 ± 0.3%, the “GFR, glomerular filtration rate” value (normal anesthetized dogs) is reported as 34 ± 6 mL/min and the “PFRNa, proximal fractional sodium reabsorption” value (normal anesthetized dogs) is reported as 77.9 ± 2.7%. The “RBF, renal blood flow” value (normal anesthetized dogs) was 213 ± 19 mL/min, the “UcGMPV, urinary cGMP excretion” value (normal anesthetized dogs) was 1674 ± 213 pmol/min and the “DFRNa, distal fractional sodium reabsorption” value (normal anesthetized dogs; iv) was 97.8 ± 0.5%. The “GFR, glomerular filtration rate” value (normal anesthetized dogs; iv) was 44 ± 6 mL/min, the “PFRNa, proximal fractional sodium reabsorption” value (normal anesthetized dogs; iv) was 71.0 ± 2.6 % and the “RBF, renal blood flow” value (normal anesthetized dogs; iv) was 198 ± 27 mL/min. For the same substance, the “UcGMPV, urinary cGMP excretion” value (normal anesthetized dogs; iv) was 2275 ± 231 pmol/min and the “natriuretic and diuretic action (urinary excretion of sodium, urine flow)” value (normal anesthetized dogs; iv) was “natriuretic and diuretic”.
